Laboratory results reported in ChEMBL document CHEMBL4699511, “Cedrol, a Sesquiterpene Alcohol, Enhances the Anticancer Efficacy of Temozolomide in Attenuating Drug Resistance via Regulation of the DNA Damage Response and MGMT Expression” (J Nat Prod, 2020).
Active and inactive are the calls of the source. The calls are words filed in the database; no cut-off is given here.

Key:
RG2 [1] = experiment: Induction of cell cycle arrest in rat RG2 cells assessed as CDK2 expression at 112.4uM after 48 hrs in presence of TMZ by Western blot analysis (reference value: 1); format: functional
DBTRG-05MG [2] = experiment: Induction of cell cycle arrest in human DBTRG-05MG cells assessed as accumulation at G0/G1 phase at 112.4 uM after 6 hrs by propidium iodide staining based flow cytometric analysis (reference value: 47.16 +/- 1.55%); format: functional
RG2 [3] = experiment: Induction of DNA damage in rat RG2 cells assessed as ATR phosphorylation at ser428 residues at 112.4 uM after 48 hrs by Western blot analysis (reference value: 1); format: functional
RG2 [4] = experiment: Induction of cell cycle arrest in rat RG2 cells assessed as accumulation at S phase at 112.4 uM after 48 hrs by propidium iodide staining based flow cytometric analysis (reference value: 20.15 +/- 2.44%); format: functional
DBTRG-05MG [5] = experiment: Potentiation of TMZ-induced antitumor activity against human DBTRG-05MG cells xenografted in BALB/c nude mouse assessed as reduction in tumour growth at 75 mg/kg, sc co-treated with TMZ for 18 days; format: functional, organism-based; conditions: time 18.0 day
RG2 [6] = experiment: Synergistic cytotoxicity against rat RG2 cells assessed as synergistic effect index at 134.9 uM after 48 hrs in presence of 412.1 uM TMZ by MTT assay; format: functional
RG2 [7] = experiment: Induction of DNA damage in rat RG2 cells assessed as H2A.X phosphorylation at ser139 at 112.4 uM after 48 hrs by Western blot analysis (reference value: 1); format: functional
RG2 [8] = experiment: Induction of apoptosis in rat RG2 cells assessed as cleaved caspace-3 expression at 112.4 uM after 48 hrs by Western blot analysis (reference value: 1); format: functional
DBTRG-05MG [9] = experiment: Induction of DNA damage in human DBTRG-05MG cells assessed as ATR phosphorylation at ser428 residues at 112.4 uM after 48 hrs in presence of TMZ by Western blot analysis (reference value: 1); format: functional
[10] = Synergistic cytotoxicity against rat CTX TNA2 cells assessed as synergistic effect index at 89.9 uM after 48 hrs in presence of 206 uM TMZ by MTT assay; format: cell-based; conditions: ctx tna2, 48 h
DBTRG-05MG [11] = experiment: Synergistic cytotoxicity against human DBTRG-05MG cells assessed as synergistic effect index at 112.4 uM after 48 hrs in presence of 309 uM TMZ by MTT assay; format: functional
DBTRG-05MG [12] = experiment: Induction of apoptosis in human DBTRG-05MG cells assessed as cleaved caspace-3 expression at 112.4 uM after 48 hrs in presence of TMZ by Western blot analysis (reference value: 1); format: functional
DBTRG-05MG [13] = experiment: Induction of apoptosis in human DBTRG-05MG cells assessed as phosphorylated caspace-9 expression at 112.4 uM after 48 hrs in presence of TMZ by Western blot analysis (reference value: 1); format: functional
DBTRG-05MG [14] = experiment: Synergistic cytotoxicity against human DBTRG-05MG cells assessed as synergistic effect index at 134.9 uM after 48 hrs in presence of 515.1 uM TMZ by MTT assay; format: functional
DBTRG-05MG [15] = experiment: Synergistic cytotoxicity against human DBTRG-05MG cells assessed as synergistic effect index at 112.4 uM after 48 hrs in presence of 412.1 uM TMZ by MTT assay; format: functional
DBTRG-05MG [16] = experiment: Induction of cell cycle arrest in human DBTRG-05MG cells assessed as accumulation at S phase at 112.4 uM after 24 hrs by propidium iodide staining based flow cytometric analysis (reference value: 22.76 +/- 1.56%); format: functional
[17] = Synergistic cytotoxicity against rat CTX TNA2 cells assessed as combination index at 134.9 uM after 48 hrs in presence of 206 uM TMZ by MTT assay; format: cell-based; conditions: ctx tna2, 48 h
[18] = Synergistic cytotoxicity against rat CTX TNA2 cells assessed as synergistic effect index at 134.9 uM after 48 hrs in presence of 309 uM TMZ by MTT assay; format: cell-based; conditions: ctx tna2, 48 h
DBTRG-05MG [19] = experiment: Induction of apoptosis in human DBTRG-05MG cells assessed as phosphorylated PARP expression at 112.4 uM after 48 hrs by Western blot analysis (reference value: 1); format: functional
DBTRG-05MG [20] = experiment: Induction of cell cycle arrest in human DBTRG-05MG cells assessed as CyclinB1 expression at 112.4 uM after 48 hrs in presence of TMZ by Western blot analysis (reference value: 1); format: functional
[21] = Effect of CD133 expression in human DBTRG-05MG cells at 112.4 uM after 48 hrs by Western blot analysis; format: functional
RG2 [22] = experiment: Inhibition of ERK phosphorylation at Tyr204 residues in rat RG2 cells at 112.4uM after 48 hrs in presence of TMZ by Western blot analysis (reference value: 1); format: cell-based
DBTRG-05MG [23] = experiment: Potentiation of TMZ-induced antitumor activity against human DBTRG-05MG cells xenografted in BALB/c nude mouse assessed as reduction in tumor growth at 75 mg/kg, sc co-treated with TMZ for 18 days by PCNA staining-based bright field microscopic analysis; format: functional, organism-based; conditions: time 18.0 day
RG2 [24] = experiment: Induction of cell cycle arrest in rat RG2 cells assessed as accumulation at G2/M phase at 112.4 uM after 48 hrs in presence of TMZ by propidium iodide staining based flow cytometric analysis (reference value: 20.04 +/- 0.55%); format: functional
DBTRG-05MG [25] = experiment: Induction of DNA damage in human DBTRG-05MG cells assessed as ATM phosphorylation at ser1981 residues at 206 uM after 48 hrs by Western blot analysis (reference value: 1); format: functional
DBTRG-05MG [26] = experiment: Induction of cell cycle arrest in human DBTRG-05MG cells assessed as accumulation at S phase at 206 uM after 12 hrs by propidium iodide staining based flow cytometric analysis (reference value: 22.76 +/- 1.56%); format: functional
RG2 [27] = experiment: Induction of cell cycle arrest in rat RG2 cells assessed as p21 expression at 206 uM after 48 hrs by Western blot analysis (reference value: 1); format: functional
RG2 [28] = experiment: Induction of cell cycle arrest in rat RG2 cells assessed as CDK2 expression at 206 uM after 48 hrs by Western blot analysis (reference value: 1); format: functional
RG2 [29] = experiment: Inhibition of ERK phosphorylation at Tyr204 residues in rat RG2 cells at 206 uM after 48 hrs by Western blot analysis (reference value: 1); format: cell-based
[30] = target: Serine/threonine-protein kinase AKT (Homo sapiens) (UniProt P31751+Q9Y243+P31749); experiment: Inhibition of AKT phosphorylation at S473 residues in human DBTRG-05MG cells at 206 uM after 48 hrs by Western blot analysis; format: cell-based
Serine/threonine-protein kinase AKT (Homo sapiens), sequence (P31749 whole entry, looked up): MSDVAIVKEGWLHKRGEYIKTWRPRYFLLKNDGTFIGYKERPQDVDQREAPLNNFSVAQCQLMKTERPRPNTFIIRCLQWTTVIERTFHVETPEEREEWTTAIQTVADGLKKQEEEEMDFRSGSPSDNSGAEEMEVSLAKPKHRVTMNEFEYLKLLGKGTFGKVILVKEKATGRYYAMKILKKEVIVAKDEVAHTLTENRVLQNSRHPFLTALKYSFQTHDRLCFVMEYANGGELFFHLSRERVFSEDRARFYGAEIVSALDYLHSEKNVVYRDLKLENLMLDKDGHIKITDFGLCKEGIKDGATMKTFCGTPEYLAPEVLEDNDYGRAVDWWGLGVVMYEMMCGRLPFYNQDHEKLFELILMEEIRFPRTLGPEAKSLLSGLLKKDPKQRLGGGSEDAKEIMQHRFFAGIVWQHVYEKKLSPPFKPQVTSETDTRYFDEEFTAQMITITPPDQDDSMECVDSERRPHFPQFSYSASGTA
Serine/threonine-protein kinase AKT (Homo sapiens), sequence (P31751 whole entry, looked up): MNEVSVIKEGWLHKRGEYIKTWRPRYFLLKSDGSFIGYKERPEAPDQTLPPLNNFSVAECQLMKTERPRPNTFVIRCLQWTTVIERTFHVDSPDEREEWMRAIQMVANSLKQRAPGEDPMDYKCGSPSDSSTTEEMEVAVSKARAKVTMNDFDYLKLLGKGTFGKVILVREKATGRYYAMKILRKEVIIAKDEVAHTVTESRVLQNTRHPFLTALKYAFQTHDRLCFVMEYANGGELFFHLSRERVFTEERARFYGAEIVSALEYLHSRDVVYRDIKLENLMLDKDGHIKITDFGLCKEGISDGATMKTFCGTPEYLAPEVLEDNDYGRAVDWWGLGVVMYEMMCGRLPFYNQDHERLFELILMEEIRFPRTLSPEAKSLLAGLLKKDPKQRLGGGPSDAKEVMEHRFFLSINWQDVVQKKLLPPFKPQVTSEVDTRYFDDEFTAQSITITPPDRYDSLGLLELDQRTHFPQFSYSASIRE
Serine/threonine-protein kinase AKT (Homo sapiens), sequence (Q9Y243 whole entry, looked up): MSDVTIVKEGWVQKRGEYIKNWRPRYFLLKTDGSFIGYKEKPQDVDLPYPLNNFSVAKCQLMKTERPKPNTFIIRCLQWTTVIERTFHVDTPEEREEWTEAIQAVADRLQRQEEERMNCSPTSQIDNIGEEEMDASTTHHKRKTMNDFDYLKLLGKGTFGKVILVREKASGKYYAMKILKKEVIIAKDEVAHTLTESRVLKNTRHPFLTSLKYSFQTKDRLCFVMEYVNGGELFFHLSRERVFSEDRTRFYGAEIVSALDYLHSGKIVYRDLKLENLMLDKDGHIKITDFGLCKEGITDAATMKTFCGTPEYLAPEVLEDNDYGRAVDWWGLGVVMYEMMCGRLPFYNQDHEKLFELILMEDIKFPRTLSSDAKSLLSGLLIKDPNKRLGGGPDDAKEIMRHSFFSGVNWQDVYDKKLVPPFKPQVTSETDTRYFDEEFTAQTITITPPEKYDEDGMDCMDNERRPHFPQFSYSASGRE

[31] = target: MAP kinase p38 (Homo sapiens) (UniProt O15264+Q15759+Q16539+P53778); experiment: Inhibition of p38 phosphorylation at Tyr182 residues in human DBTRG-05MG cells at 206 uM after 48 hrs by Western blot analysis (reference value: 1); format: cell-based
RG2 [32] = experiment: Induction of cell cycle arrest in rat RG2 cells assessed as CDK4 expression at 206 uM after 48 hrs by Western blot analysis (reference value: 1); format: functional
RG2 [33] = experiment: Induction of apoptosis in rat RG2 cells assessed as increase in DNA fragmentation at 206 uM after 48 hrs by TUNEL assay; format: functional, cell-based

## C[C@@H]1CC[C@H]2C(C)(C)[C@H]3C[C@@]12CC[C@@]3(C)O [CEDROL]
RG2 [1]
  fold change (FC): 0.4
DBTRG-05MG [2]
  Activity: 53.26%
RG2 [3]
  fold change (FC): 0.9
RG2 [4]
  Activity: 16.62%
DBTRG-05MG [5]
  Activity: Active
RG2 [6]
  Activity_index: 0.9
RG2 [7]
  fold change (FC): 1
RG2 [8]
  fold change (FC): 1.6
DBTRG-05MG [9]
  fold change (FC): 2.3
[10]
  Activity_index: 0.39
DBTRG-05MG [11]
  Activity_index: 0.87
DBTRG-05MG [12]
  fold change (FC): 4.4
DBTRG-05MG [13]
  fold change (FC): 0.4
DBTRG-05MG [14]
  Activity_index: 0.89
DBTRG-05MG [15]
  Activity_index: 0.86
DBTRG-05MG [16]
  Activity: 16.03%
[17]
  CI: 1.13
[18]
  Activity_index: 0.52
DBTRG-05MG [19]
  fold change (FC): 0.7
DBTRG-05MG [20]
  fold change (FC): 0.7
[21]
  fold change (FC): 1.5
RG2 [22]
  fold change (FC): 0.3
DBTRG-05MG [23]
  Activity: Active
RG2 [24]
  Activity: 35.71%

## Cn1nnc2c(C(N)=O)ncn2c1=O [TEMOZOLOMIDE]
DBTRG-05MG [25]
  fold change (FC): 2.8
DBTRG-05MG [26]
  Activity: 22.29%
RG2 [27]
  fold change (FC): 2.3
RG2 [28]
  fold change (FC): 0.9
RG2 [29]
  fold change (FC): 0.7
[30]
  fold change (FC): 0.7
[31]
  fold change (FC): 1.2
RG2 [32]
  fold change (FC): 0.6
RG2 [33]
  Activity: Active
